Where a name gives a salt, the structure may show the parent alone.
These compounds were tested against rhSYK (Homo sapiens (Human), UniProt P43405). Conditions: read-out: rhSYK activity.
In the case of `CC(=O)N1CCC(O)(c2ncc(-c3cc(C)cc(Nc4nccc(C(F)(F)F)n4)c3)s2)CC1` [Example 51, 1-(4-hydroxy-4-[5-(3-methyl-5-{[4-(trifluoromethyl)pyrimidin-2-yl]amino}phenyl)-1,3-thiazol-2-yl]piperidin-1-yl)ethanone], the IC50 is reported as under 100 nM.
`CNC(=O)N1CCC(O)(c2ncc(-c3cc(C)cc(Nc4nccc(C(F)(F)F)n4)c3)s2)CC1` [Example 52, 4-hydroxy-N-methyl-4-[5-(3-methyl-5-{[4-(trifluoromethyl)pyrimidin-2-yl]amino}phenyl)-1,3-thiazol-2-yl]piperidine-1-carboxamide] was tested, and the IC50 was under 100 nM.
With `Cc1cc(Nc2nccc(C(F)(F)F)n2)cc(-c2cnc(C3(O)CN(C(C)(C)C(=O)O)C3)s2)c1` [Example 53(1), 2-{3-Hydroxy-3-[5-(3-methyl-5-{[4-(trifluoromethyl)pyrimidin-2-yl]amino}phenyl)-1,3-thiazol-2-yl]azetidin-1-yl}-2-methylpropanoic acid] the IC50 was under 100 nM.
`Cc1cc(Nc2nccc(C(F)(F)F)n2)cc(-c2cnc(C3(O)CN(C(C)(C)C(=O)OC(C)(C)C(=O)O)C3)s2)c1` [Example 53(2), 2-[(2-{3-Hydroxy-3-[5-(3-methyl-5-{[4-(trifluoromethyl)pyrimidin-2-yl]amino}phenyl)-1,3-thiazol-2-yl]azetidin-1-yl}-2-methylpropanoyl)oxy]-2-methylpropanoic acid] showed an IC50 of under 100 nM.
With `Cc1cc(Nc2nccc(C(F)(F)F)n2)cc(-c2cnc([C@]3(O)CC[C@@H](c4n[nH]c(=O)o4)CC3)s2)c1` [Example 55, 5-{cis-4-hydroxy-4-[5-(3-methyl-5-{[4-(trifluoromethyl)pyrimidin-2-yl]amino}phenyl)-1,3-thiazol-2-yl]cyclohexyl}-1,3,4-oxadiazol-2(3H)-one] the IC50 was under 100 nM.
`Cc1cc(Nc2nccc(C(C)C)n2)cc(-c2cnc(C3(O)CCC3)s2)c1` [Example 56, 1-[5-(3-methyl-5-{[4-(propan-2-yl)pyrimidin-2-yl]amino}phenyl)-1,3-thiazol-2-yl]cyclobutanol HCl salt] showed an IC50 of under 100 nM.
`CC(O)(CO)c1ncc(-c2cc(F)cc(Nc3ncc(F)c(C4CC4)n3)c2)s1` (stereo not drawn) [Example 57, 2-(5-{3-[(4-cyclopropyl-5-fluoropyrimidin-2-yl)amino]-5-fluorophenyl}-1,3-thiazol-2-yl)propane-1,2-diol] showed an IC50 of under 100 nM.
With `Cc1cc(Nc2ncc(F)c(C3CC3)n2)cc(-c2cnc(C(O)(CO)C(F)(F)F)s2)c1` (stereo not drawn) [Example 58, 2-(5-{3-[(4-cyclopropyl-5-fluoropyrimidin-2-yl)amino]-5-methylphenyl}-1,3-thiazol-2-yl)-3,3,3-trifluoropropane-1,2-diol] the IC50 was under 100 nM.
`Cc1cc(Nc2nccc(C(F)(F)F)n2)cc(-c2cnc(C3(NS(C)(=O)=O)COC3)s2)c1` [Example 60, N-{3-[5-(3-methyl-5-{[4-(trifluoromethyl)pyrimidin-2-yl]amino}phenyl)-1,3-thiazol-2-yl]-oxetan-3-yl}methanesulfonamide] showed an IC50 of under 100 nM.
`Cc1cc(Nc2nccc(C(F)(F)F)n2)cc(-c2cnc(C3(NS(N)(=O)=O)COC3)s2)c1` [Example 63, N-{3-[5-(3-methyl-5-{[4-(trifluoromethyl)pyrimidin-2-yl]amino}phenyl)-1,3-thiazol-2-yl]oxetan-3-yl}sulfuric diamide] gave an IC50 of under 100 nM.
In the case of `Cc1cc(Nc2nccc(C(F)(F)F)n2)cc(-c2cnc(C3(NC(N)=O)CCC3)s2)c1` [Example 64, 1-{1-[5-(3-methyl-5-{[4-(trifluoromethyl)pyrimidin-2-yl]amino}phenyl)-1,3-thiazol-2-yl]cyclobutyl}urea], the IC50 is reported as under 100 nM.
In the case of `Cc1cc(Nc2nccc(C(F)(F)F)n2)cc(-c2cnc(C(NC(=O)NC(N)=O)(C3CC3)C3CC3)s2)c1` [Example 65, N-{dicyclopropyl[5-(3-methyl-5-{[4-(trifluoromethyl)pyrimidin-2-yl]amino}phenyl)-1,3-thiazol-2-yl]methyl}dicarbonimidic diamide], the IC50 is reported as under 100 nM.
With `Cc1cc(Nc2nccc(C(F)(F)F)n2)cc(-c2cnc(C(NC(=O)C3(C(N)=O)CC3)(C3CC3)C3CC3)s2)c1` [Example 67, N-{dicyclopropyl[5-(3-methyl-5-{[4-(trifluoromethyl)pyrimidin-2-yl]amino}phenyl)-1,3-thiazol-2-yl]methyl}cyclopropane-1,1-dicarboxamide] the IC50 was under 100 nM.
In the case of `Cc1cc(Nc2nccc(C(=O)O)n2)cc(-c2cnc(C(C)(O)C(F)(F)F)s2)c1` (stereo not drawn) [Example 68, 2-({3-methyl-5-[2-(1,1,1-trifluoro-2-hydroxypropan-2-yl)-1,3-thiazol-5-yl]phenyl}amino)-pyrimidine-4-carboxylic acid], the IC50 is reported as 1000 to 10000 nM.
`Cc1cc(Nc2nccc(C(=O)N3CCNCC3)n2)cc(-c2cnc(C(C)(O)C(F)(F)F)s2)c1` (stereo not drawn) [Example 69, [2-({3-methyl-5-[2-(1,1,1-trifluoro-2-hydroxypropan-2-yl)-1,3-thiazol-5-yl]phenyl}amino)-pyrimidin-4-yl](piperazin-1-yl)methanone] was tested, and the IC50 was under 100 nM.
Compound `CC(C)(c1ncc(-c2cc(Nc3nccc(C(F)(F)F)n3)cc([N+](=O)[O-])c2)s1)S(N)(=O)=O` [Example 70, 2-[5-(3-nitro-5-{[4-(trifluoromethyl)pyrimidin-2-yl]amino}phenyl)-1,3-thiazol-2-yl]propane-2-sulfonamide] has an IC50 of 100 to 1000 nM.
With `CC(C)(c1ncc(-c2cc(N)cc(Nc3nccc(C(F)(F)F)n3)c2)s1)S(N)(=O)=O` [Example 71, 2-[5-(3-amino-5-{[4-(trifluoromethyl)pyrimidin-2-yl]amino}phenyl)-1,3-thiazol-2-yl]propane-2-sulfonamide] the IC50 was under 100 nM.
For `CC(=O)Nc1cc(Nc2nccc(C(F)(F)F)n2)cc(-c2cnc(C(C)(C)S(N)(=O)=O)s2)c1` [Example 72, N-(3-[2-(2-sulfamoylpropan-2-yl)-1,3-thiazol-5-yl]-5-{[4-(trifluoromethyl)pyrimidin-2-yl]amino}phenyl)acetamide], the IC50 was under 100 nM.
For `Cc1cc(Nc2nccc(C(F)(F)F)n2)cc(-c2cnc(C(C)(C)S(C)(=O)=O)s2)c1` [Example 73, N-(3-methyl-5-{2-[2-(methylsulfonyl)propan-2-yl]-1,3-thiazol-5-yl}phenyl)-4-(trifluoromethyl)pyrimidin-2-amine], the IC50 was under 100 nM.
For `CC(=O)NS(=O)(=O)C1(c2ncc(-c3cc(C)cc(Nc4nccc(C(F)(F)F)n4)c3)s2)CCC1` [Example 74, N-({1-[5-(3-methyl-5-{[4-(trifluoromethyl)pyrimidin-2-yl]amino}phenyl)-1,3-thiazol-2-yl]-cyclobutyl}sulfonyl)acetamide], the IC50 was under 100 nM.
`Cc1cc(Nc2nccc(C(F)(F)F)n2)cc(-c2cnc(CS(N)(=O)=O)s2)c1` [Example 75, 1-[5-(3-methyl-5-{[4-(trifluoromethyl)pyrimidin-2-yl]amino}phenyl)-1,3-thiazol-2-yl]methanesulfonamide] was tested, and the IC50 was under 100 nM.
Work on `COC(=O)[C@H](C)Cc1ncc(-c2cc(C)cc(Nc3nccc(C(F)(F)F)n3)c2)s1` [Example 76, Methyl (2R)-2-methyl-3-[5-(3-methyl-5-{[4-(trifluoromethyl)pyrimidin-2-yl]amino}phenyl)-1,3-thiazol-2-yl]propanoate] yielded an IC50 of under 100 nM.
`Cc1cc(Nc2nccc(C(F)(F)F)n2)cc(-c2cncs2)c1` [Intermediate 4, N-[3-methyl-5-(1,3-thiazol-5-yl)phenyl]-4-(trifluoromethyl)pyrimidin-2-amine] showed an IC50 of under 100 nM.
`FC(F)(F)c1ccnc(Nc2cccc(-c3cncs3)c2)n1` [Intermediate 7, N-[3-(1,3-thiazol-5-yl)phenyl]-4-(trifluoromethyl)pyrimidin-2-amine] was tested, and the IC50 was 100 to 1000 nM.
Compound `FC(F)(F)c1ccnc(Nc2cc(Br)cc(-c3cncs3)c2)n1` [Intermediate 11, N-[3-bromo-5-(1,3-thiazol-5-yl)phenyl]-4-(trifluoromethyl)pyrimidin-2-amine] has an IC50 of 100 to 1000 nM.
Work on `Cc1cc(Nc2ncc(Cl)cn2)cc(-c2cncs2)c1` [Intermediate 48, 5-Chloro-N-[3-methyl-5-(1,3-thiazol-5-yl)phenyl]pyrimidin-2-amine] yielded an IC50 of 100 to 1000 nM.
`Cc1cc(Nc2ncc(F)c(C)n2)cc(-c2cncs2)c1` [Intermediate 49, 5-Fluoro-4-methyl-N-[3-methyl-5-(1,3-thiazol-5-yl)phenyl]pyrimidin-2-amine] was tested, and the IC50 was under 100 nM.
`Cc1cc(Nc2ncc(F)cn2)cc(-c2cncs2)c1` [Intermediate 50, 5-Fluoro-N-[3-methyl-5-(1,3-thiazol-5-yl)phenyl]pyrimidin-2-amine] was tested, and the IC50 was 100 to 1000 nM.
Compound `CCOC(=O)C1CCC(O)(c2ncc(-c3cc(C)cc(N(C(=O)OC(C)(C)C)c4nccc(C(F)(F)F)n4)c3)s2)CC1` (stereo not drawn) [Intermediate 119, Ethyl 4-[5-(3-{(tert-butoxycarbonyl)[4-(trifluoromethyl)pyrimidin-2-yl]amino}-5-methylphenyl)-1,3-thiazol-2-yl]-4-hydroxycyclohexanecarboxylate] has an IC50 of 1000 to 10000 nM.
Work on `Fc1ccc(Nc2nccc(C(F)(F)F)n2)cc1Br` [N-(3-bromo-4-fluorophenyl)-4-(trifluoromethyl)pyrimidin-2-amine] yielded an IC50 of 1000 to 10000 nM.
In the case of `FC(F)(F)c1cc(Br)cc(Nc2nccc(C(F)(F)F)n2)c1` [N-[3-bromo-5-(trifluoromethyl)phenyl]-4-(trifluoromethyl)pyrimidin-2-amine], the IC50 is reported as 1000 to 10000 nM.
`Cc1cc(Nc2nccc(C(F)(F)F)n2)cc(-c2cnc(C3(C(N)=O)CCC(N)CC3)s2)c1` (stereo not drawn) [molecule A, cis-4-amino-1-[5-(3-methyl-5-{[4-(trifluoromethyl)pyrimidin-2-yl]amino}phenyl)-1,3-thiazol-2-yl]cyclohexanecarboxamide] showed an IC50 of under 100 nM.

These compounds were tested against recombinant human SYK (GST-hSYK fusion protein) (Homo sapiens (Human), UniProt P43405). Conditions: read-out: rhSYK Activity; Table 113C.
From the text: Homogeneous Time-Resolved Fluorescence (HTRF) Assay for the Recombinant Human SYK Enzyme:
With `Cc1cc(Nc2nccc(C(C)F)n2)cc(-c2cnc(C3(O)CCNC(=O)CC3)s2)c1` (single isomer, unassigned) [113C-3] the IC50 was under 100 nM.
`Cc1cc(Nc2nccc(C(C)F)n2)cc(-c2cnc(C3(O)CCNC(=O)CC3)s2)c1` (single isomer, unassigned) [113C-4] was tested, and the IC50 was under 100 nM.

Same assay, conditions: read-out: rhSYK Activity; recombinant human SYK, HTRF assay; class symbols
With `Cc1cc(Nc2nccc(C(F)(F)F)n2)cc(-c2cnc(C3(O)CCCN(C(=O)CCn4cncn4)CC3)s2)c1` (racemic) [Example 54D-89] the IC50 was under 100 nM.
`Cc1cc(Nc2nccc(C(F)(F)F)n2)cc(-c2cnc(C3(O)CCCN(C(=O)c4ccc(O)c(F)c4)CC3)s2)c1` (racemic) [Example 54D-103] was tested, and the IC50 was under 100 nM.

Reference: patent US8759366B2, “Aminopyrimidines as SYK inhibitors” (Merck Sharp & Dohme Corp., priority 2009, dated 2014)
